Data reported in patent US9862707B2, “TrkA kinase inhibitors, compositions and methods thereof” (Merck Sharp & Dohme Corp., priority 2014, dated 2018).

Each compound was assayed against human TrkA receptor (Homo sapiens (Human), UniProt P04629) (assay: TrkA functional activity, DiscoverX PathHunter assay). Settings: U2OS cells expressing human TrkA-PK, Shc1-EA and p75NTR; compound 1 h, then NGF at ~80% of maximal response for 3 h; luminescence.
Assay type: cell-based

Sequence of human TrkA receptor (P04629 33-796): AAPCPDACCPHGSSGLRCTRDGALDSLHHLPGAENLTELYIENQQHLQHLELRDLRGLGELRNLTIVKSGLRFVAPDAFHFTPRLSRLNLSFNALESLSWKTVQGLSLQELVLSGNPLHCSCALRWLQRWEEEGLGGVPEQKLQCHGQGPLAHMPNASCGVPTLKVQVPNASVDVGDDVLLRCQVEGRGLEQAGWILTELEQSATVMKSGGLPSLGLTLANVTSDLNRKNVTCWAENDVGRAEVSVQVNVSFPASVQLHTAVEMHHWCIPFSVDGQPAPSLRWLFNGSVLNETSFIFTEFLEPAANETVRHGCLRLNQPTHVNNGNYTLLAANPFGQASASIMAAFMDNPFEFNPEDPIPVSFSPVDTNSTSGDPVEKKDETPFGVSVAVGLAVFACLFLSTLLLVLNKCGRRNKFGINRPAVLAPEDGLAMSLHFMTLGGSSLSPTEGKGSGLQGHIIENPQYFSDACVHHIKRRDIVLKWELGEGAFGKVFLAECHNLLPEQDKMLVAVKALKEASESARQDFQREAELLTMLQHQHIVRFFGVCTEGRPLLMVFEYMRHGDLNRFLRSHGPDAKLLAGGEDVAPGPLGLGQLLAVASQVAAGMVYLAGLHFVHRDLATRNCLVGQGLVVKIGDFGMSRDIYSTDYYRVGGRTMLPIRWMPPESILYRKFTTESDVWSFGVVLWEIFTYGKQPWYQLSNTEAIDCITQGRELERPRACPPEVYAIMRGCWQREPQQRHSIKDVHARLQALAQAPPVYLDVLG

| Structure (SMILES) | IC50 |
| --- | --- |
| CC(O)c1ccc2c(NC(=O)c3cc(-c4ncccn4)c(C(F)(F)F)cc3F)n(-c3ccccc3)nc2c1 (single isomer, unassigned) [Compound 19, (R and S)-2-Fluoro-N-(6-(1-hydroxyethyl)-2-phenyl-2H-indazol-3-yl)-5-(pyrimidin-2-yl)-4-(trifluoromethyl)benzamide, isomers A and B] | 1.9 nM |
| CC(O)c1ccc2c(NC(=O)c3cc(-c4ncccn4)c(C(F)(F)F)cc3F)n(-c3ccccc3)nc2c1 (single isomer, unassigned) [Compound 20, (R and S)-2-Fluoro-N-(6-(1-hydroxyethyl)-2-phenyl-2H-indazol-3-yl)-5-(pyrimidin-2-yl)-4-(trifluoromethyl)benzamide, isomers A and B] | 2.9 nM |
| O=C(Nc1c2ccc(C(O)C(F)(F)F)cc2nn1-c1ccccc1)c1cc(-c2ncccn2)c(C(F)(F)F)cc1F (single isomer, unassigned) [Compound 52, (R or S)-2-Fluoro-N-{2-phenyl-6-[(1S)-2,2,2-trifluoro-1-hydroxyethyl]-2H-indazol-3-yl}-5-pyrimidin-2-yl-4-(trifluoromethyl)benzamide, isomers A and B] | 2.8 nM |
| O=C(Nc1c2ccc(C(O)C(F)(F)F)cc2nn1-c1ccccc1)c1cc(-c2ncccn2)c(C(F)(F)F)cc1F (single isomer, unassigned) [Compound 53, (R or S)-2-Fluoro-N-{2-phenyl-6-[(1S)-2,2,2-trifluoro-1-hydroxyethyl]-2H-indazol-3-yl}-5-pyrimidin-2-yl-4-(trifluoromethyl)benzamide, isomers A and B] | 29 nM |
| CC(N)c1ccc2c(NC(=O)c3cc(-c4ncccn4)c(C(F)(F)F)cc3F)n(-c3ccccc3)nc2c1 (single isomer, unassigned) [Compound 69, (R or S)-N-{6-[1-aminoethyl]-2-phenyl-2H-indazol-3-yl}-2-fluoro-5-pyrimidin-2-yl-4-(trifluoromethyl)benzamide] | 7.1 nM |
| CC(N)c1ccc2c(NC(=O)c3cc(-c4ncccn4)c(C(F)(F)F)cc3F)n(-c3ccccc3)nc2c1 (single isomer, unassigned) [Compound 70, (R or S)-N-{6-[1-aminoethyl]-2-phenyl-2H-indazol-3-yl}-2-fluoro-5-pyrimidin-2-yl-4-(trifluoromethyl)benzamide] | 14 nM |
| O=C(Nc1c2ccc(C3CCCN3)cc2nn1-c1ccccc1)c1cc(-c2ncccn2)c(C(F)(F)F)cc1F (single isomer, unassigned) [Compound 102, (R and S)-2-Fluoro-N-(2-phenyl-6-(pyrrolidin-2-yl)-2H-indazol-3-yl)-5-(pyrimidin-2-yl)-4-(trifluoromethyl)benzamide, isomers A and B] | 29 nM |
| O=C(Nc1c2ccc(C3CCCN3)cc2nn1-c1ccccc1)c1cc(-c2ncccn2)c(C(F)(F)F)cc1F (single isomer, unassigned) [Compound 103, (R and S)-2-Fluoro-N-(2-phenyl-6-(pyrrolidin-2-yl)-2H-indazol-3-yl)-5-(pyrimidin-2-yl)-4-(trifluoromethyl)benzamide, isomers A and B] | 29 nM |
| CC(O)c1ccc2nn(-c3ccccc3)c(NC(=O)c3ccc(C(F)(F)F)c(-c4ccn(C)n4)c3)c2c1 (single isomer, unassigned; isomer a) [Compound 23, (R or S)-N-[5-(1-hydroxyethyl)-2-phenyl-2H-indazol-3-yl]-3-(1-methyl-1H-pyrazol-3-yl)-4-(trifluoromethyl)benzamide, isomer A] | 3.7 nM |
| CC(O)c1ccc2nn(-c3ccccc3)c(NC(=O)c3cc(-c4cc[nH]n4)c(C(F)(F)F)cc3F)c2n1 (single isomer, unassigned; isomer a) [Compound 31, (R or S)-2-fluoro-N-[5-(1-hydroxyethyl)-2-phenyl-2H-pyrazolo[4,3-b]pyridin-3-yl]-5-(1H-pyrazol-3-yl)-4-(trifluoromethyl)benzamide, isomer A] | 5.2 nM |
| CC(O)c1ccc2c(NC(=O)c3cc(-c4ncccn4)c(C(F)(F)F)cc3Cl)n(-c3ccccc3)nc2c1 (single isomer, unassigned; isomer a) [Compound 37, (R or S)-2-chloro-N-[6-(1-hydroxyethyl)-2-phenyl-2H-indazol-3-yl]-5-pyrimidin-2-yl-4-(trifluoromethyl)benzamide, isomer A] | 4.4 nM |
| O=C(Nc1c2cc(C(O)C(F)(F)F)ccc2nn1-c1ccccc1)c1cc(-c2ncccn2)c(C(F)(F)F)cc1F (single isomer, unassigned; isomer a) [Compound 54, (R or S)-2-fluoro-N-(2-phenyl-5-(2,2,2-trifluoro-1-hydroxyethyl)-2H-indazol-3-yl)-5-(pyrimidin-2-yl)-4-(trifluoromethyl)benzamide, isomer A] | 23 nM |
| O=C(Nc1c2ccc(C(O)C(F)F)cc2nn1-c1ccccc1)c1cc(-c2ncccn2)c(C(F)(F)F)cc1F (single isomer, unassigned; isomer a) [Compound 56, (R or S)-N-[6-(2,2-difluoro-1-hydroxyethyl)-2-phenyl-2H-indazol-3-yl]-2-fluoro-5-pyrimidin-2-yl-4-(trifluoromethyl)benzamide, isomer A] | 2.8 nM |
| O=C(Nc1c2cc(C(O)C(F)F)ccc2nn1-c1ccccc1)c1cc(-c2ncccn2)c(C(F)(F)F)cc1F (single isomer, unassigned; isomer a) [Compound 58, (R or S)-N-[5-(2,2-difluoro-1-hydroxyethyl)-2-phenyl-2H-indazol-3-yl]-2-fluoro-5-pyrimidin-2-yl-4-(trifluoromethyl)benzamide, isomer A] | 6.9 nM |
| O=C(Nc1c2ncc(C(O)CO)cc2nn1-c1ccccc1)c1cc(-c2ncccn2)c(C(F)(F)F)cc1Cl (single isomer, unassigned; isomer a) [Compound 64, (R or S)-2-chloro-N-[6-(1,2-dihydroxyethyl)-2-phenyl-2H-pyrazolo[4,3-b]pyridin-3-yl]-5-pyrimidin-2-yl-4-(trifluoromethyl)benzamide, isomer A] | 15 nM |
| CC(O)c1ccc2nn(-c3ccccc3)c(NC(=O)c3ccc(C(F)(F)F)c(-c4ccn(C)n4)c3)c2c1 (single isomer, unassigned; isomer b) [Compound 24, (R or S)-N-[5-(1-hydroxyethyl)-2-phenyl-2H-indazol-3-yl]-3-(1-methyl-1H-pyrazol-3-yl)-4-(trifluoromethyl)benzamide, isomer B] | 2.4 nM |
| CC(O)c1ccc2nn(-c3ccccc3)c(NC(=O)c3cc(-c4cc[nH]n4)c(C(F)(F)F)cc3F)c2n1 (single isomer, unassigned; isomer b) [Compound 32, (R or S)-2-fluoro-N-[5-(1-hydroxyethyl)-2-phenyl-2H-pyrazolo[4,3-b]pyridin-3-yl]-5-(1H-pyrazol-3-yl)-4-(trifluoromethyl)benzamide, isomer B] | 5.1 nM |

Other lines, results leading:

| IC50 | Structure (SMILES) |
| --- | --- |
| 0.69 nM | CC(O)c1cnc2c(NC(=O)c3cc(-c4cc[nH]n4)c(C(F)(F)F)cc3F)n(-c3ccccc3)nc2c1 (single isomer, unassigned) [Compound 21, 2-Fluoro-N-(6-(1-hydroxyethyl)-2-phenyl-2H-pyrazolo[4,3-b]pyridin-3-yl)-5-(1H-pyrazol-3-yl)-4-(trifluoromethyl)benzamide, isomers A and B] |
| 1.2 nM | CC(O)c1cnc2c(NC(=O)c3cc(-c4cc[nH]n4)c(C(F)(F)F)cc3F)n(-c3ccccc3)nc2c1 (single isomer, unassigned) [Compound 22, 2-Fluoro-N-(6-(1-hydroxyethyl)-2-phenyl-2H-pyrazolo[4,3-b]pyridin-3-yl)-5-(1H-pyrazol-3-yl)-4-(trifluoromethyl)benzamide, isomers A and B] |
| 1.8 nM | CC(O)c1cnc2c(NC(=O)c3cc(-c4ncccn4)c(C(F)(F)F)cc3F)n(-c3ccccc3)nc2c1 (single isomer, unassigned; isomer a) [Compound 29, (R or S)-2-fluoro-N-[6-(1-hydroxyethyl)-2-phenyl-2H-pyrazolo[4,3-b]pyridin-3-yl]-5-pyrimidin-2-yl-4-(trifluoromethyl)benzamide, isomer A] |
| 0.25 nM | CC(O)c1cnc2c(NC(=O)c3cc(-c4ccn(C)n4)c(C(F)(F)F)cc3F)n(-c3ccccc3)nc2c1 (single isomer, unassigned; isomer a) [Compound 33, (R or S)-2-fluoro-N-[6-(1-hydroxyethyl)-2-phenyl-2H-pyrazolo[4,3-b]pyridin-3-yl]-5-(1-methyl-1H-pyrazol-3-yl)-4-(trifluoromethyl)benzamide, isomer A] |
| 1.7 nM | CC(O)c1cnc2c(NC(=O)c3cc(-c4ncccn4)c(C(F)(F)F)cc3Cl)n(-c3ccccc3)nc2c1 (single isomer, unassigned; isomer a) [Compound 35, (R or S)-2-chloro-N-[6-(1-hydroxyethyl)-2-phenyl-2H-pyrazolo[4,3-b]pyridin-3-yl]-5-pyrimidin-2-yl-4-(trifluoromethyl)benzamide, isomer A] |
| 1.1 nM | CC(O)c1cnc2c(NC(=O)c3cc(-c4ncccn4)c(C(F)(F)F)cc3F)n(-c3ccccc3)nc2c1 (single isomer, unassigned; isomer b) [Compound 30, (R or S)-2-fluoro-N-[6-(1-hydroxyethyl)-2-phenyl-2H-pyrazolo[4,3-b]pyridin-3-yl]-5-pyrimidin-2-yl-4-(trifluoromethyl)benzamide, isomer B] |
| 0.48 nM | CC(O)c1cnc2c(NC(=O)c3cc(-c4ccn(C)n4)c(C(F)(F)F)cc3F)n(-c3ccccc3)nc2c1 (single isomer, unassigned; isomer b) [Compound 34, (R or S)-2-fluoro-N-[6-(1-hydroxyethyl)-2-phenyl-2H-pyrazolo[4,3-b]pyridin-3-yl]-5-(1-methyl-1H-pyrazol-3-yl)-4-(trifluoromethyl)benzamide, isomer B] |
| 2.4 nM | CC(O)c1cnc2c(NC(=O)c3cc(-c4ncccn4)c(C(F)(F)F)cc3Cl)n(-c3ccccc3)nc2c1 (single isomer, unassigned; isomer b) [Compound 36, (R or S)-2-chloro-N-[6-(1-hydroxyethyl)-2-phenyl-2H-pyrazolo[4,3-b]pyridin-3-yl]-5-pyrimidin-2-yl-4-(trifluoromethyl)benzamide, isomer B] |
